Each structure is given as a SMILES string.

What all share (format): cell-based, human
Experiment [1] deals with BCMA-negative K562. Nature of the experiment: In vitro cytotoxicity assay (CellTiter-Glo 2.0, 384-well), Example B2. The settings on record: Table 7; 120-hour (5-day) assay; AB1 clone. As for the experimental part:
(§1) The in vitro efficacies of ADCs anti-BCMA-Compound 50, anti-BCMA-Compound 51, anti-BCMA-Compound 52, and anti-BCMA-Compound 53, were compared to anti-BCMA-Compound 3. Anti-BCMA-AB1 clone was conjugated with compounds 50, 51, 52, 53 or 3 and the ADCs were evaluated using the following human cancer cell lines: BCMA-negative K562 and BCMA-positive NCI-H929, purchased from the American Type Culture Collection (ATCC; Manassas, VA).
(§2) Cell Culture Method: The cell lines were cultured in RPMI-1640 medium (Catalog #10-041-CV: Corning) supplemented with 10-20% fetal bovine serum (FBS; Catalog #MT35011CV; Corning) and 1× penicillin-streptomycin (Catalog #30-002-Cl, Corning) and maintained at 37° C. in a 5% C02 humidified environment. Viable cell counts were made by Trypan blue exclusion using a Countess or Countess II automated cell counter.
(§3) The in vitro assays were performed as follows: All cells were harvested by removal of a portion of the cell culture suspension followed by centrifugation at 300 g for 5 minutes, followed by resuspension in cell culture medium (described above in Cell Culture method), viable cell count (as described above in Cell Culture method), and then seeded into 384-well white wall clear bottom plates (Catalog #3765, Corning) at a density of 2,500 cells/well in growth media. Plates were maintained at 37° C. The outer wells of plates contained medium only and were used for background subtraction for the cell viability assay. Working solutions of test articles were prepared at 2× final concentrations with 5-fold serial dilutions in complete growth medium. Cell treatment was performed in either technical triplicates or duplicates and maintained at 37° C. for 120-hour assay. After treatment, cell viability was determined by CellTiter-Glo 2.0 assay (Catalog #G9243; Promega; Madison, WI, USA) based on the manufacturer's instructions. CellTiter Glo reagent reacts with ATP in metabolically active cells to give a luminescent readout that is directly proportional to the number of viable cells. Briefly, plates were removed from the incubator and equilibrated to room temperature before addition of CellTiter Glo reagent. Luminescence was measured using a Tecan Spark microplate reader (Tecan; Mannedorf, Switzerland).
(§4) Data Analysis: For Cytotoxicity assays, raw luminescence data was background subtracted with average luminescence from the outer wells containing medium only and normalized to untreated controls using Excel (Microsoft; Albuquerque, NM). Dose-response relationships and EC50 values were determined based on non-linear regression analysis of normalized data fit to a four-parameter logistic equation using GraphPad Prism 8.0.
In general terms: In ATP-based viability assays light output follows the ATP content of the culture.

Experiment [2] has as its system BCMA-positive NCI-H929. The description is as above. The settings on record: Table 7; 120-hour (5-day) assay; AB1 clone. How it is done: as §1, §2, §3, §4
In experiment [3] the test system is NCI-H929 (BCMA+) cells and K562 (BCMA −) cells. Put plainly: In vitro cytotoxicity assay, Example B2, statements across all cell lines. The settings on record: regardless of BCMA expression level; read-out: average EC50, inhibition of cell proliferation across all cell lines. As for the experimental part: The in vitro efficacies of ADCs anti-BCMA-Compound 50, anti-BCMA-Compound 51, anti-BCMA-Compound 52, and anti-BCMA-Compound 53, were compared to anti-BCMA-Compound 3. Anti-BCMA-AB1 clone was conjugated with compounds 50, 51, 52, 53 or 3 and the ADCs were evaluated using the following human cancer cell lines: BCMA-negative K562 and BCMA-positive NCI-H929, purchased from the American Type Culture Collection (ATCC; Manassas, VA). […]
The in vitro assays were performed as follows: All cells were harvested by removal of a portion of the cell culture suspension followed by centrifugation at 300 g for 5 minutes, followed by resuspension in cell culture medium (described above in Cell Culture method), viable cell count (as described above in Cell Culture method), and then seeded into 384-well white wall clear bottom plates (Catalog #3765, Corning) at a density of 2,500 cells/well in growth media. […] After treatment, cell viability was determined by CellTiter-Glo 2.0 assay (Catalog #G9243; Promega; Madison, WI, USA) based on the manufacturer's instructions. CellTiter Glo reagent reacts with ATP in metabolically active cells to give a luminescent readout that is directly proportional to the number of viable cells. […] Luminescence was measured using a Tecan Spark microplate reader (Tecan; Mannedorf, Switzerland). […]

As for `CC[C@H](C)[C@@H]([C@@H](CC(=O)N1CCC[C@H]1[C@H](OC)[C@@H](C)C(=O)N[C@H](CN=[N+]=[N-])Cc1ccc(NC(C)C)cc1)OC)N(C)C(=O)[C@@H](NC(=O)[C@H](C(C)C)N(C)C)C(C)C` [D3, reference compound], the values for the EC50 in experiment [1], in experiment [2] and in experiment [3] were 1.52 nM, 1.08 nM and 0.88 to 1.53 nM, respectively.

(Values after patent US20240181073A1, “Antibody-Drug Conjugates Comprising an Anti-BCMA Antibody” (Sorrento Therapeutics, Inc., priority 2021, published 2024).)
